Results from patent publication US20250025438A1, “Derivative of aspartic acid and use thereof in treatment of metabolic diseases such as hepatic fibrosis and non-alcoholic hepatitis” (SHENZHEN JINGTAI TECHNOLOGY CO., LTD., priority 2021, published 2025).
Structures can show the parent of a compound that is named as a salt. Where two headings read alike, the source gives them in different places.

Tests used:
[1] = Pharmacokinetic testing in rats; type: in vivo, SD rats
Experimental: Rats were used as test animals to study the pharmacokinetic behavior of the following compounds in rat plasma.
The drugs were self-made according to the examples of the present invention.
SD rats, 6-8 weeks old, 3 for each administration method/example, male.
The animals were fasted overnight, ate food 8 hours after taking the drug, and drank water freely.
Blood was collected before administration and at 5 min, 15 min, 30 min, 1 hr, 2 hr, 4 hr, 8 hr and 24 hr after administration.
The blood was placed on wet ice and centrifuged to obtain plasma sample (2000 g, 5 min at 4° C.).
The LC-MS/MS method was used to determine the blood drug concentration. The HPLC conditions were: mobile phase A: H2O-0.5% FA; mobile phase B: ACN-0.5% FA;
WinNonlin 8.2 non-compartmental model was used to estimate pharmacokinetic parameters (PK parameters, including but not limited to peak concentration (Cmax), time to peak (Tmax), terminal elimination rate (Ke), terminal elimination half-life (T1/2), area under drug-time curve (AUC), clearance rate (CL), apparent volume of distribution (Vd), mean residence time (MRT), bioavailability (F), etc.).

[2] = system: NS3TP1; test: NS3TP1 expression in liver tissue of CCl4 liver fibrosis mice; type: in vivo, C57BL/6 wild-type mice; settings: CCl4-induced mice, different doses by gavage, vs untreated group, FIG. 5
Experimental: Long-term intraperitoneal injection of carbon tetrachloride (CCl4) induced reversible liver fibrosis, which was often used to screen and evaluate anti-hepatic fibrosis drugs. C57BL/6 wild-type mice were randomly divided into control group, carbon tetrachloride group and treatment group. The treatments were as follows:
Mice in the carbon tetrachloride group: The animals were intraperitoneally injected with carbon tetrachloride in a total amount of 0.5 μL/g, diluted with corn oil to 10 μL/g, 3 times/week. […]

[3] = system: FN; test: Semi-activated LX2 cells, Western blot: FN protein; type: cell-based; settings: 50-400 μM, 48 hours, FIG. 3, vs 50 μM aspartic acid
[4] = male, SD, rat, plasma, PO 20 mg/kg

SMILES | AUC compared with rats administrated with aspartic acid ([1]; PO 20 mg/kg) | Cmax compared with rats administrated with aspartic acid ([1]; PO 20 mg/kg) | Tmax compared with rats administered with aspartic acid ([1]; PO 20 mg/kg) | Cmax ([1]; male, SD, rat, plasma, Compound 6 IV 10 mg/kg, read-out: Cmax of Compound 6) [ng/mL] | Cmax ([1]; male, SD, rat, plasma, Compound 6 PO 40 mg/kg, read-out: Cmax of Compound 6) [ng/mL] | AUC(0-t) [1, 4] [ng·h/mL] | Tmax [1, 4] [min] | Cmax ([1]; male, SD, rat, plasma, PO 20 mg/kg, read-out: Cmax) [ng/mL] | expression of NS3TP1 in the liver tissue of mice [2] | inhibitory effect on FN protein expression as compared to ASP [3]
COC(=O)C[C@H](N)C(=O)O [Compound 6] | significantly higher | significantly higher | significantly smaller | 6100 | 22500 | 71300 | 30 | 14800 | gradually increased in a dose-dependent manner | –
COC(=O)C[C@H](N)C(=O)OCOC(=O)[C@@H](N)CC(=O)OC [Compound 54, 4-dimethyl O′1,01-methylene (2S,2'S)-bis (2-aminosuccinate) hydrochloride] | – | – | – | – | – | – | – | – | – | stronger inhibitory effects
